In PubChem BioAssay AID330 (DTP/NCI, 2004):
Several values for one entry are separate records, joined by “and”; a condition that tells them apart may be missing. Equal values may be shown once. Inconclusive results and toxic doses are left out. Rule for the calls: active = survival T/C of 150% or more; inactive = T/C below 125% in these data.

System: P388 leukemia ip, CD2F1 mice, survival T/C
Assay: NCI In Vivo Anticancer Drug Screen. Data for tumor model P388 Leukemia (intraperitoneal) in CD2F1 (CDF1) mice
Conditions: endpoint: median survival time, higher = longer survival
Procedure, shortened: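 Mice carrying the transplanted tumor received test compound or vehicle. Survival was recorded in each group, and the value is the treated-group measurement divided by that of the vehicle-treated control group.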

[1] = dose: 50.0 mg/kg/injection, schedule: Q01DX009 (ip), vehicle: saline with Tween-80
[2] = dose: 100.0 mg/kg/injection, schedule: Q01DX009 (ip), vehicle: saline with Tween-80
[3] = dose: 200.0 mg/kg/injection, schedule: Q01DX009 (ip), vehicle: saline with Tween-80
[4] = dose: 50.0 mg/kg/injection, schedule: Q01DX005 (ip), vehicle: Klucel (hydroxypropylcellulose) (HPC)
[5] = dose: 100.0 mg/kg/injection, schedule: Q01DX005 (ip), vehicle: Klucel (hydroxypropylcellulose) (HPC)
[6] = dose: 200.0 mg/kg/injection, schedule: Q01DX005 (ip), vehicle: Klucel (hydroxypropylcellulose) (HPC)
[7] = dose: 60.0 mg/kg/injection, schedule: Q01DX005 (ip), vehicle: saline
[8] = dose: 120.0 mg/kg/injection, schedule: Q01DX005 (ip), vehicle: saline
[9] = dose: 240.0 mg/kg/injection, schedule: Q01DX005 (ip), vehicle: saline
[10] = dose: 100.0 mg/kg/injection, schedule: Q04DX003 (ip), vehicle: Klucel (hydroxypropylcellulose) (HPC)
[11] = dose: 200.0 mg/kg/injection, schedule: Q04DX003 (ip), vehicle: Klucel (hydroxypropylcellulose) (HPC)
[12] = dose: 400.0 mg/kg/injection, schedule: Q04DX003 (ip), vehicle: Klucel (hydroxypropylcellulose) (HPC)
[13] = dose: 50.0 mg/kg/injection, schedule: Q01DX005 (ip), vehicle: saline with Tween-80
[14] = dose: 100.0 mg/kg/injection, schedule: Q01DX005 (ip), vehicle: saline with Tween-80
[15] = dose: 60.0 mg/kg/injection, schedule: Q01DX005 (ip), vehicle: saline with Tween-80
[16] = dose: 120.0 mg/kg/injection, schedule: Q01DX005 (ip), vehicle: saline with Tween-80
[17] = dose: 240.0 mg/kg/injection, schedule: Q01DX005 (ip), vehicle: saline with Tween-80
[18] = dose: 50.0 mg/kg/injection, schedule: Q01DX009 (ip), vehicle: Klucel (hydroxypropylcellulose) (HPC)
[19] = dose: 100.0 mg/kg/injection, schedule: Q01DX009 (ip), vehicle: Klucel (hydroxypropylcellulose) (HPC)
[20] = dose: 200.0 mg/kg/injection, schedule: Q01DX009 (ip), vehicle: Klucel (hydroxypropylcellulose) (HPC)
[21] = dose: 50.0 mg/kg/injection, schedule: Q01DX009 (ip), vehicle: saline
[22] = dose: 100.0 mg/kg/injection, schedule: Q01DX009 (ip), vehicle: saline

Measured: T/C

Clc1nc(SC2=NCCN2)c2[nH]cnc2n1
inactive: dose: 5.0 mg/kg/injection, schedule: Q01DX009 (ip), vehicle: saline with Tween-80 100 % of control and 92 % of control | dose: 10.0 mg/kg/injection, schedule: Q01DX009 (ip), vehicle: saline with Tween-80 104 % of control and 113 % of control | dose: 20.0 mg/kg/injection, schedule: Q01DX009 (ip), vehicle: saline with Tween-80 105 % of control | dose: 40.0 mg/kg/injection, schedule: Q01DX009 (ip), vehicle: saline with Tween-80 100 % of control

COc1ccc(Oc2c(OC)cc(NCCCCCN3C(=O)c4ccccc4C3=O)c3ncccc23)cc1
inactive: [1] 88 % of control | [2] 97 % of control | [3] 89 % of control

O=C(/C=C/c1ccccc1)[c-]1[c-][c-][c-][c-]1.[Fe].[c-]1[c-][c-][cH-][c-]1
inactive: [4] 96 % of control | [5] 109 % of control | [6] 100 % of control

CCOC(=O)c1ccc(NC(=O)Nc2nc3c(Cl)cccc3s2)cc1
inactive: [1] 104 % of control | [2] 94 % of control | [3] 87 % of control

COC(=O)NN(C(=O)OC)C12CCCCC1N(C(=O)OC)N(C(=O)OC)c1ccccc12 (stereo unspecified)
inactive: dose: 100.0 mg/kg/injection, schedule: Q01DX001 (ip), vehicle: Klucel (hydroxypropylcellulose) (HPC) 103 % of control | dose: 200.0 mg/kg/injection, schedule: Q01DX001 (ip), vehicle: Klucel (hydroxypropylcellulose) (HPC) 98 % of control | dose: 400.0 mg/kg/injection, schedule: Q01DX001 (ip), vehicle: Klucel (hydroxypropylcellulose) (HPC) 100 % of control

NC(=O)C(CO)NC(=O)c1cccnc1 (stereo unspecified)
inactive: [7] 100 % of control | [8] 100 % of control | [9] 99 % of control

CNC(=O)C(C(=O)NC)c1ccccc1
inactive: [10] 95 % of control | [11] 95 % of control | [12] 96 % of control

CCN(CC)CCOC(=O)c1ccc(NC(=O)COc2ccc3ccccc3c2)cc1
inactive: dose: 25.0 mg/kg/injection, schedule: Q01DX009 (ip), vehicle: other 88 % of control and 97 % of control | dose: 50.0 mg/kg/injection, schedule: Q01DX009 (ip), vehicle: other 88 % of control and 102 % of control | dose: 100.0 mg/kg/injection, schedule: Q01DX009 (ip), vehicle: other 86 % of control and 105 % of control | dose: 200.0 mg/kg/injection, schedule: Q01DX009 (ip), vehicle: other 102 % of control and 97 % of control | dose: 400.0 mg/kg/injection, schedule: Q01DX009 (ip), vehicle: other 100 % of control and 109 % of control

CCCNC(=O)OCCN(CCOC(=O)NCCC)CCc1cccc(OC)c1OC
inactive: [7] 101 % of control | [8] 105 % of control | [9] 100 % of control

CCCCCNC(=O)C(O)C(O)C(=O)NCCCCC (stereo unspecified)
inactive: [13] 104 % of control | [14] 101 % of control | dose: 200.0 mg/kg/injection, schedule: Q01DX005 (ip), vehicle: saline with Tween-80 90 % of control

CCCCCCC(=O)N1SC(NC(=O)OC)=Nc2ccccc21
inactive: dose: 50.0 mg/kg/injection, schedule: Q01DX005 (ip), vehicle: acetone 108 % of control | dose: 100.0 mg/kg/injection, schedule: Q01DX005 (ip), vehicle: acetone 102 % of control | dose: 200.0 mg/kg/injection, schedule: Q01DX005 (ip), vehicle: acetone 102 % of control

COC(=O)C(=O)C1(c2nc3n(c2O)/C(=N/C(=O)Nc2ccc(Cl)cc2)N=N3)CCCCCC1=O (stereo unspecified)
inactive: [15] 100 % of control | [16] 99 % of control | [17] 94 % of control

CNc1ccc(Nc2cccc(C)c2)c2c1C(=O)c1ccccc1C2=O
inactive: [18] 100 % of control | [19] 91 % of control | [20] 113 % of control

COC(CCC1N=C1c1ccccc1)OC (stereo unspecified)
inactive: dose: 100.0 mg/kg/injection, schedule: Q04DX002 (ip), vehicle: saline with Tween-80 105 % of control | dose: 200.0 mg/kg/injection, schedule: Q04DX002 (ip), vehicle: saline with Tween-80 102 % of control | dose: 400.0 mg/kg/injection, schedule: Q04DX002 (ip), vehicle: saline with Tween-80 102 % of control

CCCCCCCCCCCCCCCC[N+]1(CC)CCCCC1
inactive: dose: 0.59 mg/kg/injection, schedule: Q01DX009 (ip), vehicle: saline 121 % of control | dose: 0.78 mg/kg/injection, schedule: Q01DX009 (ip), vehicle: saline 89 % of control

O=[N+]([O-])c1cccc(N=Nn2cccc2)c1
inactive: dose: 25.0 mg/kg/injection, schedule: Q01DX009 (ip), vehicle: saline with Tween-80 100 % of control | [1] 100 % of control | [2] 109 % of control

Nc1cc(=O)[nH]c2ncnn12
inactive: dose: 25.0 mg/kg/injection, schedule: Q01DX009 (ip), vehicle: saline 103 % of control | [21] 109 % of control | [22] 102 % of control | dose: 200.0 mg/kg/injection, schedule: Q01DX009 (ip), vehicle: saline 99 % of control

C[C@@H]1CC(c2ccc(Cl)cc2)[C@@H](c2ccccc2)C(=O)O1 (stereo partly specified)
inactive: [10] 100 % of control | [11] 99 % of control | [12] 97 % of control

C[C@]12CCCC[C@@H]1CC[C@@H]1[C@@H]2[C@@H](O)C[C@]2(C)[C@@H](O)CC[C@@H]12
inactive: dose: 100.0 mg/kg/injection, schedule: Q04DX003 (ip), vehicle: saline with Tween-80 91 % of control | dose: 200.0 mg/kg/injection, schedule: Q04DX003 (ip), vehicle: saline with Tween-80 100 % of control

Cc1c(=O)n(C)c2ccccc2[n+]1[O-]
inactive: [15] 96 % of control | [16] 93 % of control | [17] 100 % of control

CCN(CC)CCCC(CCl)Nc1ccnc2cc(Cl)ccc12 (stereo unspecified)
inactive: [18] 113 % of control | [21] 97 % of control | [19] 100 % of control | [22] 100 % of control | [20] 98 % of control

Cc1c([N+](=O)[O-])oc2c1C(=O)NCCC2
inactive: [18] 104 % of control | [19] 91 % of control | [20] 108 % of control

O=C(NNCNNC(=O)c1ccncc1)c1ccncc1
inactive: [4] 100 % of control | [5] 100 % of control | [6] 96 % of control

Cn1ccccc1=NCC(N)=O
inactive: dose: 100.0 mg/kg/injection, schedule: Q04DX002 (ip), vehicle: saline 99 % of control | dose: 200.0 mg/kg/injection, schedule: Q04DX002 (ip), vehicle: saline 104 % of control | dose: 400.0 mg/kg/injection, schedule: Q04DX002 (ip), vehicle: saline 102 % of control

CC1=CC=CN2CCC(=O)N=C12
inactive: dose: 50.0 mg/kg/injection, schedule: Q01DX005 (ip), vehicle: saline 113 % of control | dose: 100.0 mg/kg/injection, schedule: Q01DX005 (ip), vehicle: saline 101 % of control | dose: 200.0 mg/kg/injection, schedule: Q01DX005 (ip), vehicle: saline 101 % of control

O=C(O)CCCC(=O)c1ccc2ccccc2c1
inactive: [1] 98 % of control | [2] 98 % of control | [3] 99 % of control

COc1nc2cc3c(cc2n2cccc12)oc1ccccc13
inactive: dose: 25.0 mg/kg/injection, schedule: Q01DX005 (ip), vehicle: saline with Tween-80 95 % of control | [13] 96 % of control | [14] 102 % of control

FC(F)(F)C(F)(F)c1nc2nc(Cl)c(Cl)nc2[nH]1
inactive: dose: 50.0 mg/kg/injection, schedule: Q04DX003 (ip), vehicle: other 100 % of control | dose: 100.0 mg/kg/injection, schedule: Q04DX003 (ip), vehicle: other 118 % of control | dose: 200.0 mg/kg/injection, schedule: Q04DX003 (ip), vehicle: other 113 % of control

CNC1NC(=O)c2ccccc2N1Cc1ccc(F)cc1 (stereo unspecified)
inactive: dose: 60.0 mg/kg/injection, schedule: Q01DX005 (ip), vehicle: Klucel (hydroxypropylcellulose) (HPC) 94 % of control | dose: 120.0 mg/kg/injection, schedule: Q01DX005 (ip), vehicle: Klucel (hydroxypropylcellulose) (HPC) 92 % of control | dose: 240.0 mg/kg/injection, schedule: Q01DX005 (ip), vehicle: Klucel (hydroxypropylcellulose) (HPC) 94 % of control
